According to PubChem BioAssay AID2305 (GlaxoSmithKline (GSK), 2010):

These molecules were tested on P. falciparum 3D7 growth, pLDH absorbance (assay: P. falciparum 3D7 growth inhibition, dose response, strain 3D7 (AID 2305)).
`COc1ccccc1/C=C/C(=O)NC1CCC(CCN2CCc3ccc(-c4cc(C)no4)cc3CC2)CC1` (centres undefined) was tested, and the IC50 was 0.96 µM. For `COc1cc(NC(=O)/C=C/c2ccc(-c3ccccc3)cc2)ccc1OCCN(C(C)C)C(C)C`, the IC50 was 0.84 µM. Work on `CC(C)(C)c1cc(C(=O)N2CCN(c3cnccn3)CC2)n(Cc2ccccc2)n1` yielded an IC50 of 1.14 µM. `Cc1ccc(CC(C)(C)NCC(O)c2cccc(C(F)(F)F)c2)cc1` (centres undefined) was tested, and the IC50 was 0.84 µM. With `CN1CCN(c2ccc(Nc3nccc(-c4cnn5ncccc45)n3)cc2Cl)CC1` the IC50 was 0.83 µM. `COc1cc(Nc2nccc(-c3c(-c4cccc(NC(=O)c5c(F)cccc5F)c4)nn4ccccc34)n2)cc(OC)c1OC` showed an IC50 of 0.08 µM. `O=C(Nc1ccc2c(c1)CCN2C1CCN(Cc2cccc(C(F)(F)F)c2)C1)c1ccco1` (centres undefined) gave an IC50 of 0.56 µM. `O=C(Nc1cccc(CN2CCCN(CC3CCCCC3)CC2)c1)c1ccc(Cl)c(Cl)c1` gave an IC50 of 0.96 µM. Molecule `Cc1ccc(F)cc1-c1cc(N2CCCN(C(=O)c3ccc(Br)o3)CC2)ncn1` has an IC50 of 1.43 µM. For `O=C(/C=C/c1ccc(Cl)c(Cl)c1)NCCCCCN1CCC(NC(=O)NC2CCCCC2)CC1`, the IC50 was 0.56 µM. Work on `O=C(Nc1cccc(C(F)(F)F)c1)c1ccc(S(=O)(=O)NCC2CCN(CC3CCCCC3)CC2)cc1` yielded an IC50 of 0.32 µM. Work on `O=C(Cc1ccccc1)NC1CCN(c2ccnc3cc(Cl)ccc23)C1` (centres undefined) yielded an IC50 of 0.8 µM. `CN(C)C(=O)CN1CCN(c2ncnc(N3CCc4c([nH]c5ccccc45)[C@@H]3c3ccc4c(c3)CCO4)n2)CC1` gave an IC50 of 0.87 µM. Work on `CC1(C)CCCN(Cc2c(O)ccc3c(=O)c(-c4nc5ccccc5s4)c(N)oc23)C1` yielded an IC50 of 0.34 µM. With `CCCCCOc1ccc(N2C(N)=NC(N)=NC2(C)C)cc1` the IC50 was 0.2 µM. With `COc1cc(OC)nc(C(Sc2ccc(NC(=O)c3cccs3)cc2)c2ccccc2)n1` (centres undefined) the IC50 was 0.06 µM. `Fc1cc(Cl)ccc1Nc1ccnc2cc(-c3ccc(CN4CCSCC4)o3)ccc12` gave an IC50 of 0.78 µM. Molecule `Cc1cccc2[nH]c(-c3ccc(-c4ccc(CN5CCN(CCO)CC5)cc4)s3)nc12` has an IC50 of 0.71 µM. `COc1cc(F)c2ncc(Cl)c([C@@H](O)CN3CCC(NCc4ccc5c(n4)NC(=O)CO5)CC3)c2c1` showed an IC50 of 0.12 µM. Work on `CCc1cc(N2CCN(c3ccccc3F)CC2)nc(SCc2ccc(C(=O)NC3CC3)o2)n1` yielded an IC50 of 0.89 µM. Molecule `COc1ccc(CNCCCCCCNCc2ccc(OC)c3ccccc23)c2ccccc12` has an IC50 of 0.58 µM. Molecule `O=S1(=O)NC2(CCN(CCc3ccc(Cl)cc3)CC2)Nc2cc(F)cc(F)c21` has an IC50 of 1.46 µM. `CC(=O)Nc1nc(N)c2c(ccc3c2ccn3CC(C)C)n1` gave an IC50 of 0.07 µM. In the case of `O=C(NCCc1ccc(Cl)c(Cl)c1)[C@@H]1CCCN1C(=O)c1ccc(O)c(-c2cccc(C(F)(F)F)c2)c1`, the IC50 is reported as 0.82 µM. For `Cc1cc(Nc2c(C(N)=O)cnc3cc(-c4ccoc4)ccc23)ccc1N1CCN(C)CC1`, the IC50 was 0.8 µM. Work on `Fc1ccc(C=NNc2ccnc3ccc(C(F)(F)F)cc23)cc1` yielded an IC50 of 1.1 µM. In the case of `O=C(Nc1cc(C(F)(F)F)cc(C(F)(F)F)c1)Nc1cc(C(F)(F)F)cc(C(F)(F)F)c1`, the IC50 is reported as 0.73 µM. With `O=C(/C=C/c1cccc(Br)c1)NCCCCCN1CCC(c2c[nH]c3ccccc23)CC1` the IC50 was 0.63 µM. `c1ccc(CN2CCC(NCc3ccc(-c4cccc(CNC5CCCC5)c4)cc3)CC2)cc1` gave an IC50 of 0.34 µM. With `CCCOc1ccc(C(=O)Nc2nonc2-c2ccc(OC)c(OC)c2)cc1` the IC50 was 0.99 µM. For `CCOC(=O)c1c(C)noc1Nc1cccc(C)c1C`, the IC50 was 0.42 µM. With `CCCNCc1ccc(-c2ccc(CN(CCOC)C(=O)c3cscn3)cc2)nc1` the IC50 was 0.18 µM. `CCCNCc1ccc(-c2ccc(CN(CC3CCCO3)C(=O)COc3ccccc3Cl)cc2)nc1` (centres undefined) was tested, and the IC50 was 1.18 µM. Work on `COc1ccccc1C1CCN(C2CCC(NC(=O)/C=C/c3cc(C(F)(F)F)ccc3F)CC2)CC1` (centres undefined) yielded an IC50 of 0.87 µM. `COc1cccc(-c2nn(C)c3sc(C(=O)NCCN4CCN(c5ccccc5F)CC4)cc23)c1` was tested, and the IC50 was 0.95 µM. In the case of `O=C(Nc1ccc(OC2CCN(Cc3ccc(F)cc3)C2)c(Cl)c1)c1cccs1` (centres undefined), the IC50 is reported as 0.13 µM. `COc1ccc2nccc([C@@H](O)CN3CCC(NC[C@H](Cc4ccccc4)NC(=O)OC(C)(C)C)CC3)c2c1` gave an IC50 of 0.23 µM. In the case of `O=C(Nc1ccc2c(c1)CCC2)c1ccc(CN2CCCN(Cc3cccc(O)c3)CC2)cc1`, the IC50 is reported as 0.89 µM. `CCCCNCc1ccc(-c2nc(CN(Cc3ccc(Cl)c(Cl)c3)S(=O)(=O)c3ccc(NC(C)=O)cc3)cs2)cc1` gave an IC50 of 1.03 µM. In the case of `CCCCCC(=O)N1CCOC(CCN2CCc3c(c4ccccc4n3C)C2)(c2ccc(Cl)c(Cl)c2)C1` (centres undefined), the IC50 is reported as 0.98 µM. `CC(C)(CN)c1nc(-c2ccc(Br)c(O)c2)c(-c2ccncc2)[nH]1` gave an IC50 of 0.97 µM. `c1ccc(Oc2ccc(Nc3ccnc(Nc4cccc(CNCCCN5CCOCC5)c4)n3)cc2)cc1` gave an IC50 of 1.04 µM. With `CCNc1cc(C(=O)N[C@@H](Cc2ccccc2)[C@H](O)CN[C@H]2CCc3ccccc32)cc(N2CCCC2=O)c1` the IC50 was 0.29 µM. Work on `N#Cc1ccc2nc(-c3ccccc3)[nH]c2c1` yielded an IC50 of 0.7 µM. `CCN(CC)CCOc1ccc(C(O)(C#CC(O)(c2ccccc2)c2ccc(OCCN(CC)CC)cc2)c2ccccc2)cc1` (centres undefined) gave an IC50 of 1.31 µM. In the case of `C#CCOc1ccc(N2C(N)=NC(N)=NC2(C)C)cc1`, the IC50 is reported as 0.07 µM. For `O=C(Nc1ccc(OC2CCN(Cc3ccccc3)CC2)c(Cl)c1)c1ccco1`, the IC50 was 0.41 µM. `COc1ccc(Nc2ccnc3cc(Cl)ccc23)cc1OC` showed an IC50 of 1.12 µM. `Clc1cccc(C=NNc2ccnc3ccccc23)c1` showed an IC50 of 0.85 µM. With `Cc1cc(N)c2cc(NC(=O)/C=C/c3ccccc3)ccc2n1` the IC50 was 0.76 µM. `COc1ccc2c(c1)CCCC2NCCCCNC(=O)c1ccc(NC(=O)c2ccc(Cl)cc2)cc1` (centres undefined) gave an IC50 of 0.38 µM. `CCCCCCCCNCCCSCCCNCCCCCCCC` was tested, and the IC50 was 1.23 µM. In the case of `O=c1ccccn1CCCC1CCCCN1` (centres undefined), the IC50 is reported as 0.81 µM. `Cc1cc(C)cc(OCC(O)CN(Cc2cc(Cl)cc(Cl)c2)C(=O)Nc2ccc([N+](=O)[O-])cc2)c1` (centres undefined) was tested, and the IC50 was 0.8 µM. Work on `O=C(NC1CC1)c1ccc(Nc2nccc(-c3c(-c4cccc(NC(=O)c5c(F)cccc5F)c4)nn4ccccc34)n2)cc1` yielded an IC50 of 0.41 µM. In the case of `Cn1cnc(CCNC(=O)c2ccc(-c3ccc(-c4nc5ccc(F)cc5[nH]4)cc3)cc2)c1`, the IC50 is reported as 0.87 µM. `O=C(Nc1ccccc1)N(Cc1ccccc1-c1cccc(CNC2CCCC2)c1)C1CCN(Cc2ccccc2)CC1` was tested, and the IC50 was 0.17 µM. For `CCCCCCN1CCC(NCc2ccc(Cl)cc2)CC1`, the IC50 was 0.85 µM. For `CN(C)CCNCc1ccc(-c2ccc3c(Nc4ccc(Oc5ccccc5)cc4)ccnc3c2)o1`, the IC50 was 0.28 µM. Work on `COc1ccccc1C1CCN(C2CCC(NC(=O)c3ccc4nc(-c5ccc(C)cc5)[nH]c4c3)CC2)CC1` (centres undefined) yielded an IC50 of 0.31 µM. With `CC(C)CNCc1ccc(-c2ccc(CN(CCCN3CCN(C)CC3)C(=O)CCC3CCCC3)cc2)cc1` the IC50 was 1.06 µM. `O=C(Nc1ccc(OC2CCN(Cc3ccccc3)CC2)c(Cl)c1)c1ccsc1` was tested, and the IC50 was 0.9 µM. In the case of `COCCN1CCN(Cc2ccc(-c3cccc(-c4nc5ccccc5[nH]4)c3)cc2)CC1`, the IC50 is reported as 1.11 µM. In the case of `Cc1ccccc1NC1=NC(=S)N(c2cccc(C(F)(F)F)c2)C12CCC(C(C)(C)C)CC2` (centres undefined), the IC50 is reported as 0.97 µM. Molecule `Cc1ccc(NC(=O)Nc2ccccc2F)cc1-c1ccc(C(=O)Nc2ccncc2)cc1` has an IC50 of 0.56 µM. `COc1ccc(CN2CCC(N3CC(c4ccccc4)(c4ccccc4)OCC3=O)C2)c(O)c1` (centres undefined) showed an IC50 of 0.93 µM. `O=C(Nc1cccc(CN2CCCN(Cc3ccccc3)CC2)c1)c1ccc(-c2ccccc2)cc1` showed an IC50 of 1.3 µM. `Cc1ccc(NC(=O)c2ccc(CN3CCCN(CCC(C)C)CC3)cc2)cc1C` was tested, and the IC50 was 0.91 µM. `OC(CNc1ccnc(Nc2ccc(Cl)cc2)n1)c1ccccc1C(F)(F)F` (centres undefined) showed an IC50 of 0.79 µM. With `O=C(Nc1ccc(-c2csc3nccn23)cc1)c1ccc(Cl)cc1` the IC50 was 0.58 µM. With `CCN(CC)CCCN(CCCN(CC)CC)c1cc(C)nc(Nc2ccc(Cl)cc2)n1` the IC50 was 0.21 µM. Work on `CCCN(CCC)CCCNc1ccc(C(=O)Nc2ccc(C(C)C)cc2)cc1[N+](=O)[O-]` yielded an IC50 of 0.71 µM. Work on `O=C(/C=C/c1ccc(Cl)c(Cl)c1)NCCCCCN1CCCN(C(=S)Nc2ccc(Cl)cc2)CC1` yielded an IC50 of 1.13 µM. Work on `COc1cccc(OC)c1C(=O)N1CCC2(CC1)C(=O)N(CC(=O)NC1CCCCC1)CN2c1ccccc1` yielded an IC50 of 0.95 µM. Molecule `COc1ccc(NC(=O)C2c3ccccc3C(=O)N(C3CCCC3)C2c2cccs2)cc1` (centres undefined) has an IC50 of 1.71 µM. In the case of `COc1ccc(-c2ccc(NC(=O)c3cccc(F)c3)cc2)cc1CN1CCCN(C)CC1`, the IC50 is reported as 0.67 µM. In the case of `CC(=O)C1(c2ccccc2)CCN(CCC2(c3ccc(Cl)c(Cl)c3)CN(C(=O)c3cccc(Cl)c3)CCO2)CC1` (centres undefined), the IC50 is reported as 0.85 µM. `CCC(C)NCC(O)(c1ccc(Cl)cc1)c1ccc(Cl)cc1` (centres undefined) gave an IC50 of 0.84 µM. Work on `COc1ccc(-c2ccc(CNCc3ccsc3)cc2)cc1S(=O)(=O)NCCN1CCCC1` yielded an IC50 of 0.79 µM. `CC(=O)c1sc2ccccc2c1O` showed an IC50 of 0.88 µM. `Cc1ccc(C(=O)Nc2ccnc(N(C)C3CCN(Cc4cccc(O)c4)CC3)c2)cn1` gave an IC50 of 1.88 µM. In the case of `CCCCOc1cc(C)nc2ccc(NC(=O)COCC(=O)Nc3ccc4nc(C)cc(OCCCC)c4c3)cc12`, the IC50 is reported as 1 µM. `COc1ccc(C2CCN(CCCCNC(=O)c3ccc(NC(=O)c4ccc(Cl)cc4)cc3)CC2)cc1Cl` was tested, and the IC50 was 0.84 µM. For `CN(Cc1cccc(F)c1)C1CCN(c2cc(NC(=O)c3cccc(F)c3)ccn2)CC1`, the IC50 was 1.16 µM. `COc1cc(CNCCC(C)C)ccc1OCc1cccc(COc2ccc(CNCCC(C)C)cc2OC)c1` was tested, and the IC50 was 0.49 µM. With `O=C(Nc1cccc(C(F)(F)F)c1)NC1CCN(c2ccnc3cc(Cl)ccc23)C1` (centres undefined) the IC50 was 0.12 µM. `N#Cc1ccc2c(c1)CCN(CCC1CCC(NC(=O)c3cc4ccc(Br)cc4[nH]3)CC1)C2` (centres undefined) was tested, and the IC50 was 0.76 µM. In the case of `CC(=O)N(C)/N=C/[C@H](CCc1ccccc1)NC(=O)[C@H](CC(C)C)NC(=O)c1cccc(OCCN2CCOCC2)c1`, the IC50 is reported as 0.33 µM. `CNC(=O)Cc1ccc(C(=O)Nc2cccc(-c3csc(-c4nc5ccccc5[nH]4)c3)c2)cc1` was tested, and the IC50 was 0.27 µM. `NC1=NC(C=Cc2ccccc2)N(OCCCCCCON2C(N)=NC(N)=NC2C=Cc2ccccc2)C(N)=N1` (centres undefined) gave an IC50 of 0.61 µM. `N=C(N)c1cc(Cl)cc(NC(=O)Nc2cc(Cl)cc(C(=N)N)c2)c1` gave an IC50 of 0.72 µM. With `COc1ccc2c(NCCc3ccccc3)cc(-c3ccccc3)nc2c1` the IC50 was 0.99 µM. With `O=C(/C=C/c1ccc(Cl)cc1)NCCCCCN1CCCC(C(=O)Nc2ccc(Cl)c(Cl)c2)C1` (centres undefined) the IC50 was 0.83 µM. Work on `Cc1cccc2[nH]c(-c3ccc(-c4cccc(CNCCCN5CCCC5=O)c4)s3)nc12` yielded an IC50 of 0.59 µM. `COc1ccc2ncc(F)c([C@@H](O)CN3CCC(NCc4cc5c(cn4)OCCO5)CC3)c2c1` showed an IC50 of 0.14 µM. `Cc1cc(-c2ccc(Cl)cc2)c2c(N)c(C(=O)Nc3ccc(F)cc3)sc2n1` showed an IC50 of 0.82 µM. In the case of `COc1ccc(CN2C(=S)N(Cc3ccccc3)C(=O)C2CC(=O)Nc2ccccc2)cc1OC` (centres undefined), the IC50 is reported as 0.84 µM. `COc1ccc(-c2cnc(N)c(-c3ccc(C(N)=O)cc3)c2)cc1OC` gave an IC50 of 0.9 µM. For `O=C(NC1CCN(Cc2ccc3c(c2)OCCO3)CC1)c1ccc(-c2cccc(Cl)c2)s1`, the IC50 was 1.91 µM.
